From PubChem BioAssay AID1745844 (Carcinogenic Potency Database (CPDB), 2022)
Active and inactive are the calls of the source. The rule behind the calls is not given here.

System: rodent lifetime carcinogenesis bioassay, tumor incidence TD50
Test: chronic cancer bioassays in animals – CPDB, compiled studies (AID 1745844)

Compound: CCC(CC)C(=O)NC(N)=O
- TD50 (rat, strain Fischer 344, males, in feed, site: kidney, lesion: tubular-cell adenoma, dosed 71 weeks, study length 71 weeks): 30.4 mg/kg/day

Compound: CC(C)N(C(=O)SCC(Cl)=CCl)C(C)C
- TD50 (mouse, strain B6AKF1, females, oral dosing, site: any site (literature study), lesion: several types, types named in the paper, dosed 85 weeks, study length 85 weeks): 1990 mg/kg/day
- TD50 (mouse, strain B6AKF1, females, oral dosing, site: liver, lesion: hepatoma, dosed 85 weeks, study length 85 weeks): 516 mg/kg/day
- TD50 (mouse, strain B6AKF1, females, oral dosing, site: lung, lesion: adenoma, dosed 85 weeks, study length 85 weeks): 4260 mg/kg/day
- TD50 (mouse, strain B6AKF1, males, oral dosing, site: any site (literature study), lesion: several types, types named in the paper, dosed 84 weeks, study length 84 weeks): 35.4 mg/kg/day
- TD50 (mouse, strain B6AKF1, males, oral dosing, site: liver, lesion: hepatoma, dosed 84 weeks, study length 84 weeks): 43 mg/kg/day
- TD50 (mouse, strain B6AKF1, males, oral dosing, site: lung, lesion: adenoma, dosed 84 weeks, study length 84 weeks): 243 mg/kg/day
- TD50 (mouse, strain B6C3F1, females, oral dosing, site: any site (literature study), lesion: several types, types named in the paper, dosed 83 weeks, study length 83 weeks): 90.8 mg/kg/day
- TD50 (mouse, strain B6C3F1, females, oral dosing, site: liver, lesion: several types, types named in the paper, dosed 83 weeks, study length 83 weeks): 164 mg/kg/day
- TD50 (mouse, strain B6C3F1, females, oral dosing, site: lung, lesion: adenoma, dosed 83 weeks, study length 83 weeks): 255 mg/kg/day
- TD50 (mouse, strain B6C3F1, males, oral dosing, site: any site (literature study), lesion: several types, types named in the paper, dosed 84 weeks, study length 84 weeks): 15.6 mg/kg/day
- TD50 (mouse, strain B6C3F1, males, oral dosing, site: liver, lesion: hepatoma, dosed 84 weeks, study length 84 weeks): 19.4 mg/kg/day
- TD50 (mouse, strain B6C3F1, males, oral dosing, site: lung, lesion: adenoma, dosed 84 weeks, study length 84 weeks): 113 mg/kg/day

Compound: Nc1ccc(-c2ccc(N)cc2)cc1
- TD50 (mouse, strain C57BL/6JfC3Hf/Nctr x BALB/cStCrlfC3Hf/Nctr inter se, females, in drinking water, site: Harderian gland, lesion: adenoma, dosed 143 weeks, study length 143 weeks): 41.1 mg/kg/day
- TD50 (mouse, strain C57BL/6JfC3Hf/Nctr x BALB/cStCrlfC3Hf/Nctr inter se, females, in drinking water, site: liver, lesion: hepatocellular adenoma, dosed 60 weeks, study length 60 weeks): 30.2 mg/kg/day
- TD50 (mouse, strain C57BL/6JfC3Hf/Nctr x BALB/cStCrlfC3Hf/Nctr inter se, females, in drinking water, site: liver, lesion: hepatocellular adenoma, dosed 80 weeks, study length 80 weeks): 78.7 mg/kg/day
- TD50 (mouse, strain C57BL/6JfC3Hf/Nctr x BALB/cStCrlfC3Hf/Nctr inter se, females, in drinking water, site: liver, lesion: hepatocellular carcinoma, dosed 60 weeks, study length 60 weeks): 17.9 mg/kg/day
- TD50 (mouse, strain C57BL/6JfC3Hf/Nctr x BALB/cStCrlfC3Hf/Nctr inter se, females, in drinking water, site: liver, lesion: hepatocellular carcinoma, dosed 80 weeks, study length 80 weeks): 9.6 mg/kg/day
- TD50 (mouse, strain C57BL/6JfC3Hf/Nctr x BALB/cStCrlfC3Hf/Nctr inter se, females, in drinking water, site: liver, lesion: hepatocellular carcinoma, dosed 143 weeks, study length 143 weeks): 18.9 mg/kg/day
- TD50 (mouse, strain C57BL/6JfC3Hf/Nctr x BALB/cStCrlfC3Hf/Nctr inter se, females, in drinking water, site: uterus, lesion: angioma, dosed 143 weeks, study length 143 weeks): 402 mg/kg/day
- TD50 (mouse, strain C57BL/6JfC3Hf/Nctr x BALB/cStCrlfC3Hf/Nctr inter se, males, in drinking water, site: Harderian gland, lesion: adenoma, dosed 143 weeks, study length 143 weeks): 208 mg/kg/day
- TD50 (mouse, strain C57BL/6JfC3Hf/Nctr x BALB/cStCrlfC3Hf/Nctr inter se, males, in drinking water, site: liver, lesion: hepatocellular adenoma, dosed 60 weeks, study length 60 weeks): 67.7 mg/kg/day
- TD50 (mouse, strain C57BL/6JfC3Hf/Nctr x BALB/cStCrlfC3Hf/Nctr inter se, males, in drinking water, site: liver, lesion: hepatocellular adenoma, dosed 80 weeks, study length 80 weeks): 186 mg/kg/day
- TD50 (mouse, strain C57BL/6JfC3Hf/Nctr x BALB/cStCrlfC3Hf/Nctr inter se, males, in drinking water, site: liver, lesion: hepatocellular carcinoma, dosed 60 weeks, study length 60 weeks): 74.3 mg/kg/day
- TD50 (mouse, strain C57BL/6JfC3Hf/Nctr x BALB/cStCrlfC3Hf/Nctr inter se, males, in drinking water, site: liver, lesion: hepatocellular carcinoma, dosed 80 weeks, study length 80 weeks): 39 mg/kg/day
- TD50 (mouse, strain C57BL/6JfC3Hf/Nctr x BALB/cStCrlfC3Hf/Nctr inter se, males, in drinking water, site: liver, lesion: hepatocellular carcinoma, dosed 143 weeks, study length 143 weeks): 60.5 mg/kg/day
- TD50 (mouse, strain C57BL/6JfC3Hf/Nctr x BALB/cStCrlfC3Hf/Nctr, females, in drinking water, site: Harderian gland, lesion: adenoma, dosed 143 weeks, study length 143 weeks): 51.7 mg/kg/day
- TD50 (mouse, strain C57BL/6JfC3Hf/Nctr x BALB/cStCrlfC3Hf/Nctr, females, in drinking water, site: liver, lesion: hepatocellular adenoma, dosed 60 weeks, study length 60 weeks): 24.7 mg/kg/day
- TD50 (mouse, strain C57BL/6JfC3Hf/Nctr x BALB/cStCrlfC3Hf/Nctr, females, in drinking water, site: liver, lesion: hepatocellular adenoma, dosed 79 weeks, study length 80 weeks): 41.9 mg/kg/day
- TD50 (mouse, strain C57BL/6JfC3Hf/Nctr x BALB/cStCrlfC3Hf/Nctr, females, in drinking water, site: liver, lesion: hepatocellular carcinoma, dosed 60 weeks, study length 60 weeks): 17.1 mg/kg/day
- TD50 (mouse, strain C57BL/6JfC3Hf/Nctr x BALB/cStCrlfC3Hf/Nctr, females, in drinking water, site: liver, lesion: hepatocellular carcinoma, dosed 79 weeks, study length 80 weeks): 8.99 mg/kg/day
- TD50 (mouse, strain C57BL/6JfC3Hf/Nctr x BALB/cStCrlfC3Hf/Nctr, females, in drinking water, site: liver, lesion: hepatocellular carcinoma, dosed 143 weeks, study length 143 weeks): 10.9 mg/kg/day
- TD50 (mouse, strain C57BL/6JfC3Hf/Nctr x BALB/cStCrlfC3Hf/Nctr, females, in drinking water, site: uterus, lesion: angioma, dosed 143 weeks, study length 143 weeks): 335 mg/kg/day
- TD50 (mouse, strain C57BL/6JfC3Hf/Nctr x BALB/cStCrlfC3Hf/Nctr, males, in drinking water, site: Harderian gland, lesion: adenoma, dosed 143 weeks, study length 143 weeks): 129 mg/kg/day
- TD50 (mouse, strain C57BL/6JfC3Hf/Nctr x BALB/cStCrlfC3Hf/Nctr, males, in drinking water, site: liver, lesion: hepatocellular adenoma, dosed 60 weeks, study length 60 weeks): 60.8 mg/kg/day
- TD50 (mouse, strain C57BL/6JfC3Hf/Nctr x BALB/cStCrlfC3Hf/Nctr, males, in drinking water, site: liver, lesion: hepatocellular adenoma, dosed 80 weeks, study length 80 weeks): 94.8 mg/kg/day
- TD50 (mouse, strain C57BL/6JfC3Hf/Nctr x BALB/cStCrlfC3Hf/Nctr, males, in drinking water, site: liver, lesion: hepatocellular carcinoma, dosed 60 weeks, study length 60 weeks): 97.5 mg/kg/day
- TD50 (mouse, strain C57BL/6JfC3Hf/Nctr x BALB/cStCrlfC3Hf/Nctr, males, in drinking water, site: liver, lesion: hepatocellular carcinoma, dosed 80 weeks, study length 80 weeks): 33.2 mg/kg/day
- TD50 (mouse, strain C57BL/6JfC3Hf/Nctr x BALB/cStCrlfC3Hf/Nctr, males, in drinking water, site: liver, lesion: hepatocellular carcinoma, dosed 143 weeks, study length 143 weeks): 31.2 mg/kg/day

Compound: C/C=C(\C)C(=O)O[C@@H]1CCN2CC=C(COC(=O)[C@](O)(C(C)C)[C@H](C)O)[C@H]12
- TD50 (rat, strain ACI, males, i.p., site: any site (literature study), lesion: several types, types named in the paper, dosed 56 weeks, study length 92 weeks): 4.5 mg/kg/day
- TD50 (rat, strain ACI, males, i.p., site: liver, lesion: several types, types named in the paper, dosed 56 weeks, study length 92 weeks): 1.91 mg/kg/day

Compound: O=CCCCC=O
- TD50 (mouse, strain B6C3F1, females, inhaled, site: any site (literature study), lesion: several types, types named in the paper, dosed 104 weeks, study length 105 weeks): 3.08 mg/kg/day (inactive)
- carcinogen call (mouse, strain B6C3F1, females, inhaled, site: liver, lesion: one or several types, types not named, dosed 52 weeks, study length 52 weeks): negative (inactive)
- carcinogen call (mouse, strain B6C3F1, females, inhaled, site: liver, lesion: one or several types, types not named, dosed 78 weeks, study length 78 weeks): negative (inactive)
- TD50 (mouse, strain B6C3F1, females, inhaled, site: lung, lesion: adenocarcinoma, dosed 52 weeks, study length 52 weeks): 0.54 mg/kg/day (inactive)
- TD50 (mouse, strain B6C3F1, females, inhaled, site: lung, lesion: adenocarcinoma, dosed 78 weeks, study length 78 weeks): 0.347 mg/kg/day (inactive)
- TD50 (mouse, strain B6C3F1, females, inhaled, site: lung, lesion: alveolar/bronchiolar adenoma + alveolar/bronchiolar carcinoma, dosed 104 weeks, study length 105 weeks): 17.4 mg/kg/day
- carcinogen call (mouse, strain B6C3F1, males, inhaled, site: any site (literature study), lesion: several types, types named in the paper, dosed 104 weeks, study length 104 weeks): negative (inactive)
- carcinogen call (mouse, strain B6C3F1, males, inhaled, site: liver, lesion: hepatocellular carcinoma, dosed 52 weeks, study length 52 weeks): negative (inactive)
- carcinogen call (mouse, strain B6C3F1, males, inhaled, site: liver, lesion: hepatocellular carcinoma, dosed 78 weeks, study length 78 weeks): negative (inactive)
- carcinogen call (mouse, strain B6C3F1, males, inhaled, site: lung, lesion: adenocarcinoma, dosed 52 weeks, study length 52 weeks): negative (inactive)
- TD50 (mouse, strain B6C3F1, males, inhaled, site: lung, lesion: adenocarcinoma, dosed 78 weeks, study length 78 weeks): 1.14 mg/kg/day (inactive)
- TD50 (rat, strain Fischer 344, females, inhaled, site: any site (literature study), lesion: several types, types named in the paper, dosed 104 weeks, study length 104 weeks): 0.125 mg/kg/day (inactive)
- TD50 (rat, strain Fischer 344, males, inhaled, site: any site (literature study), lesion: several types, types named in the paper, dosed 104 weeks, study length 104 weeks): 0.239 mg/kg/day (inactive)

Compound: C=CCN(N)CC=C
- TD50 (mouse, strain Swiss albino, females, in drinking water, site: forestomach, lesion: squamous-cell papilloma, dosed 100 weeks, study length 100 weeks): 332 mg/kg/day
- carcinogen call (mouse, strain Swiss albino, females, in drinking water, site: liver, lesion: angioma, dosed 100 weeks, study length 100 weeks): negative (inactive)
- carcinogen call (mouse, strain Swiss albino, females, in drinking water, site: liver, lesion: angiosarcoma, dosed 100 weeks, study length 100 weeks): negative (inactive)
- TD50 (mouse, strain Swiss albino, females, in drinking water, site: lung, lesion: adenocarcinoma, dosed 100 weeks, study length 100 weeks): 112 mg/kg/day
- TD50 (mouse, strain Swiss albino, females, in drinking water, site: lung, lesion: adenoma, dosed 100 weeks, study length 100 weeks): 37.8 mg/kg/day
- TD50 (mouse, strain Swiss albino, females, in drinking water, site: lung, lesion: several types, types named in the paper, dosed 100 weeks, study length 100 weeks): 34.9 mg/kg/day
- TD50 (mouse, strain Swiss albino, males, in drinking water, site: forestomach, lesion: squamous-cell papilloma, dosed 93 weeks, study length 93 weeks): 48.1 mg/kg/day
- carcinogen call (mouse, strain Swiss albino, males, in drinking water, site: liver, lesion: angioma, dosed 93 weeks, study length 93 weeks): negative (inactive)
- TD50 (mouse, strain Swiss albino, males, in drinking water, site: liver, lesion: angiosarcoma, dosed 93 weeks, study length 93 weeks): 723 mg/kg/day (inactive)
- TD50 (mouse, strain Swiss albino, males, in drinking water, site: lung, lesion: adenocarcinoma, dosed 93 weeks, study length 93 weeks): 38.9 mg/kg/day
- TD50 (mouse, strain Swiss albino, males, in drinking water, site: lung, lesion: adenoma, dosed 93 weeks, study length 93 weeks): 29.8 mg/kg/day
- TD50 (mouse, strain Swiss albino, males, in drinking water, site: lung, lesion: several types, types named in the paper, dosed 93 weeks, study length 93 weeks): 25.7 mg/kg/day

Compound: ClCOCCOCCl
- TD50 (mouse, strain Ha/ICR, females, i.p., site: abdomen, lesion: several types, types named in the paper, dosed 78 weeks, study length 78 weeks): 4.62 mg/kg/day
